# Experimental data: patent US20230149383A1, “QUINOLINE COMPOUNDS FOR TREATING LUNG, LIVER, AND KIDNEY DISEASES, DISORDERS, OR CONDITIONS” (Aldeyra Therapeutics, Inc., priority 2020, published 2023)
# “Also recorded” adds a separate entry of the source. Read-outs that look alike come from different tables or passages of the source.
# Tests used:
# [1] = system: rat NAFLD model; assay: 12-week choline deficient high fat diet rat study (NAFLD model); type: in vivo; conditions: for NAS score: 7 week group
# From the text: NAFLD is diagnosed in the US as 3 million new cases each year. NASH is included in the NAFLD diagnosis, as it is the easiest to ascertain in a subject. NAFLD activity score (NAS) is scored as 0-2 not diagnostic, 3-4 ranges from not diagnostic/borderline/positive NASH, and 5-8 diagnostic of NASH; the NAS scoring system includes a composite of […] semi-quantitative features: steatosis (0-3), lobular inflammation (0-2), hepatocellular ballooning (0-2), and fibrosis (0-4). To analyze the effect of compound I-1 on NAFLD, NAS was analyzed in rats treated with vehicle or various doses of compound I-1 (100 mg/kg, 125 mg/kg was compared to escalation 30/60/100 mg/kg and 50/75/100 mg/kg BID, respectively in animals fed a choline deficient, high fat diet for 7 weeks (vehicle vs. 100 mg/kg vs 30/60/100 mg/kg) and 12 weeks (vehicle vs. 125 mg/kg vs 50/75/100 mg/kg). Plasma was collected at 1, 2, 3, 6, 8, 10, and 12 weeks and tested for cytokines and ALT, AST, Triglycerides, Cholesterol, and tBilirubin (measures of liver function). At 12 weeks the livers were collected and gene expression studies, immunohistochemistry, and hydroxyproline.
# [2] = system: delayed rectifier potassium current; assay: In vitro inhibition of the delayed rectifier potassium current; type: cell-based
# [3] = Genotoxicity studies
# Procedure: (§1) I-1 plasma concentrations are projected to have reached at least 10 μM, exceeding reported levels of RASP in humans with inflammatory diseases. The data support the potential of I-1, and RASP inhibition in general, in treating inflammation and fibrosis.
# [4] = Phase 1 trial, pharmacokinetics in healthy volunteers; type: in vivo, human; conditions: for Cmax / AUC / half-life: human, in vivo; for AUC: read-out: 0 to 12 hour area under the curve (AUCtau)
# Procedure: Healthy volunteers were dosed with 600 mg of compound I-1 BID for 10 days in the top (highest) dose cohort. […] The 0 to 12 hour area under the curve (AUCtau) was 5710 h*ng/mL (61.5% CV) on Day 1 and 6,800 h*ng/mL (37.9% CV) on Day 10.
# [5] = First-in-human Phase 1 trial (SAD/MAD), safety; type: in vivo
# Procedure: The adverse event profile was favorable compared to placebo: A total of 6 (9.4%) subjects receiving the test compound had treatment emergent adverse events, compared to 4 (19.1%) subjects who received placebo. […] No changes in serum glucose were observed. […] There were no subjects who had QTcF >500 msec or a change of >60 msec from baseline. […] Three of these five subjects were in the SAD portion of the study (one each in the 100 mg, 200 mg, and 700 mg dose cohorts) and the remaining two subjects were in the MAD portion of the study (one each in the 150 mg BID and 300 mg BID dose cohorts).
# Clinical development of compound I-1 in inflammatory disease is supported by safety testing in human healthy volunteers in single and multiple ascending dose (10 day), placebo-controlled Phase I trials.
# [6] = system: large panel of ligand binding assays, ion channel assays, transporter assays, and enzyme inhibition studies; assay: Secondary pharmacology studies (ligand binding, ion channel, transporter, enzyme inhibition panel)
# Procedure: as §1
# [7] = system: free MDA; assay: Phase 1 trial, plasma biomarkers in healthy volunteers; type: in vivo, human; conditions: vs placebo
# [8] = system: rat NAFLD model; assay: 12-week choline deficient high fat diet rat study (NAFLD model); type: in vivo; conditions: 11 Week Groups (Day 84)
# [9] = system: STAM mouse model (NASH/HCC); assay: STAM mouse model (NASH/HCC); type: in vivo
# From the text: The STAM™ model is a model that recapitulates the same disease progression as human NASH/HCC. In this model, male C57BL/6 mice aged two days are given a single dose of streptozotocin to reduce insulin secretory capacity. When the mice turn four weeks of age they start a high-fat diet feeding. This model has a background of late type 2 diabetes which progresses into fatty liver, NASH, fibrosis and consequently liver cancer (HCC). Compared to other NASH-HCC model mice, the disease progresses in a relatively short period of time, and liver cancer is developed in 100% of animals at 20 weeks of age. The model is widely used in NASH research, with more than 40 papers and 70 international conferences published using data from the STAM™ model so far. STAM™ model is able to reproduce many of the pathological features of human NASH. For example: ballooning degeneration of cells, a characteristic pathological feature of human NASH; burned-out NASH, in which lipid droplets decrease as fibrosis progresses; progression of fibrosis occurring around the central vein; a mild rise in ALT (a liver injury marker); increase in NASH markers such as CK-18; increase in human HCC markers such as glutamine synthase, glypican-3 and AFP have been observed.
# In a STAM mouse model (NASH/HCC), animals at birth are given a low dose of STZ (200 ug) and then at 3 to 4 weeks these animals are fed a high fat diet. In the progression of the animal model, at 5 weeks fatty liver is evident, 7 weeks NASH is evident, 9 weeks fibrosis is evident, and at 10 weeks nodules are evident and necropsy is performed. In this study, three groups vehicle (0.5% methylcellulose) alone, BID (200 mg/kg in vehicle, BID=twice a day), and QID (200 mg/kg in vehicle, QID=[…]), dosing began at 4 weeks and continued to week ten of the animal model.
# [10] = plasma, 7 week and 12 week groups, vs vehicle
# [11] = after high-fat meal on Day 10, 600 mg BID
# [12] = 200 mg/kg in 0.5% methylcellulose, BID and QID groups, week 4 to 10
structure (smiles),measurement,setting,value
CC(C)(O)c1nc2ccccc2cc1N [I-1],liver fibrosis (picrosirius red histopathology),[1]; 7 week and 12 week groups,trended to have reduced
same,liver inflammation (hematoxylin eosin histopathology),[1]; 7 week and 12 week groups,trended to have reduced
same,NAS score,"[1]; 100 mg/kg, vs vehicle",statistical significant reduction
same,NAS score,[1]; 30/60/100 mg/kg escalation,reduced
same,MCP expression levels,"[1]; 12 week group, vs vehicle",remained similar to vehicle
same,MIP expression levels,"[1]; 12 week group, vs vehicle",reduction
same,Rantes expression levels,"[1]; 12 week group, vs vehicle",remained similar to vehicle
same,cholesterol,[1]; [10],trended at lower values than vehicle
same,triglycerides,[1]; [10],trended at lower values than vehicle
same,potential to inhibit the delayed rectifier potassium current,[2],very low potential
same,potential for mutagenicity or clastogenicity,[3],no potential for mutagenicity or clastogenicity
same,risk of genotoxicity,[3]; preclinical studies,low risk of genotoxicity
same,accumulation of the drug,[4]; across all cohorts,Little to no accumulation
same,correlation of Cmax and AUC with dose,[4]; as dose increased,linear correlation
same,increase in clearance,[4]; between Day 1 and Day 10,no significant increase in clearance
same,Cmax,"[4]; 600 mg, 600 mg BID, Day 1",1920 ng/mL
same,AUC,"[4]; 600 mg, 600 mg BID, Day 1",5710 ng·h/mL
same,half-life,"[4]; 600 mg, 600 mg BID, Day 1, read-out: half-life (converted)",3.98 h
same,Cmax,"[4]; 600 mg, 600 mg BID, Day 10",1460 ng/mL
same,AUC,"[4]; 600 mg, 600 mg BID, Day 10",6800 ng·h/mL
same,half-life,"[4]; 600 mg, 600 mg BID, Day 10, read-out: half-life (converted)",4.56 h
same,half-life,"[4]; multiple day exposures, across cohorts, read-out: half-life (t1/2), mean values",3.07 to 6.2 h
same,cyp autoinduction,[4]; over the course of 10 days,no cyp autoinduction was observed
same,overall safety and tolerability,"[5]; Phase 1 SAD and MAD (10 day), up to 600 mg BID",safe and tolerable
same,subjects with QTcF change of >30 msec from baseline,"[5]; SAD 100, 200, 700 mg, MAD 150 mg BID, 300 mg BID cohorts",Five
same,QTcF prolongation,[5]; in vivo,did not lead to QTcF prolongation
same,"changes in heart rate, blood pressure, respiratory rate, pulse oximetry, or temperature",[5]; in vivo,No clinically meaningful changes
same,"changes in hepatic or renal analytes (ALT, AST, ALP, amylase, GGT, bilirubin, creatinine kinase, creatinine)",[5]; in vivo,No clinically meaningful changes
same,changes in serum glucose,[5]; in vivo,No changes
same,hematological changes,[5]; in vivo,No clinically significant hematological changes
same,interruptions or discontinuations of study drug administration,[5]; in vivo,no interruptions or discontinuations
same,subjects with QTcF >500 msec or a change of >60 msec from baseline,[5]; in vivo,no subjects
same,subjects with treatment emergent adverse events,"[5]; subjects receiving the test compound, number (%)",6 (9.4%) subjects
same,risk of off-target effects,[6],low risk of off-target effects
same,free MDA levels in plasma,[7]; 600 mg BID over 10 days,decrease in free MDA levels was observed
same,levels of HDL,[7]; [11],statistically higher
same,levels of free fatty acids,[7]; [11],statistically lower
same,NAS scores,[8],lower
same,hepatic fibrosis,[9]; [12],significantly reduced; also recorded: significant reduction
same,hepatic triglycerides,[9]; [12],significantly reduced; also recorded: significant reduction
same,body weight gain,"[9]; 200 mg/kg in methylcellulose, BID and QID (FIG. 10: QD or BID), vs vehicle",statistically significant reduction
